Tested on: neurones corticaux
Test: Oxidative stress (MetO-positive neurons) in cortical neurons after Aβ1-42
Format: cell-based, rats
Conditions: Rattus norvegicus, Cortical neurone, Aβ1-42 1,25 µM, 4 h (Aβ1-42 alone 136.98%), read-out: nombre de neurones positifs à MetO
Experimental: Des neurones corticaux de rats sont mis en culture comme dans la méthode décrite par Singer (1999) J. Neurosci. 19:2455-2463. Des rats femelles enceintes de 15 jours sont tuées par dislocation des cervicales (Rats Wistar, Janvier) et le fœtus est retiré de l'utérus. Les cortex sont prélevés et placés dans un milieu glacé de Leibovitz (L15, Panbiotech, Réf : P04-27055, lot : 9310614) contenant 2% de pénicilline (10 000 U/ml) et de streptomycine (10 mg/ml) (PS, Panbiotec, Réf : P06-07100, lot : 48101114) et 1% de sérum-albumine bovine (BSA, Panbiotech, Réf : P06-1391100, lot : H140603). Les cortex sont dissociés par trypsination (0,05% Panbiotech, Réf : P10-023100, lot : 5890314) pendant 20 minutes à 37°C. La réaction est stoppée par addition d'un milieu Eagle modifié de Dulbecco (DMEM, Panbiotech, réf P04-03600, lot : 9670913) contenant de la DNase I grade Il (0,1 mg/ml Panbiotech, Réf : P60-37780100, lot : H140508) et 10 % de sérum de veau fœtal (FCS, Invitrogen, Réf : 10270 à 098, lot : 41Q4120K). Les cellules sont dissociées mécaniquement par 3 passages à travers une pipette de 10 ml. Les cellules sont ensuite centrifugées à 515 g pendant 10 minutes à 4°C. […]

CCNC1=Nc2ccc(Cl)cc2C(C)(c2ccccc2)O1 (centres unmarked) [Etifoxine, chlorhydratede 6-chloro-2-éthylamino-4-méthyl-4-phényl-4H-[3,1]benzoxazine]
activity at 3 µM (étifoxine 3 µM): 108%
activity at 10 µM (étifoxine 10 µM): 103%
